Tests used:
Test in all cases: relative viability (nuclei count vs DMSO), 5 days (fraction); higher = more cells survive
Crenolanib + Linsitinib = compound: CC1(COc2ccc3c(c2)ncn3-c2ccc3cccc(N4CCC(N)CC4)c3n2)COC1 [Crenolanib] + C[C@]1(O)C[C@@H](c2nc(-c3ccc4ccc(-c5ccccc5)nc4c3)c3c(N)nccn32)C1 [Linsitinib] (partner 1 µM)
How it was run: (§1)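 Lung cancer cell lines were pin-tool dosed in 1536-well plates on the day after seeding, with either a lone drug or a fixed anchor-drug dose plus five library-drug doses (not always all listed) in √10 steps. Nuclei were counted on 4× images after 5 days. Relative viability is the ratio of treated-well to vehicle-well nuclei counts, with each value a median of duplicate plates.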

Crenolanib + Bortezomib = compound: CC1(COc2ccc3c(c2)ncn3-c2ccc3cccc(N4CCC(N)CC4)c3n2)COC1 [Crenolanib] + CC(C)C[C@H](NC(=O)[C@H](Cc1ccccc1)NC(=O)c1cnccn1)B(O)O [Bortezomib] (partner 0.002 µM)
How it was run: as §1

Tivantinib + Palbociclib = compound: O=C1NC(=O)[C@@H](c2cn3c4c(cccc24)CCC3)[C@@H]1c1c[nH]c2ccccc12 [Tivantinib] + CC(=O)c1c(C)c2cnc(Nc3ccc(N4CCNCC4)cn3)nc2n(C2CCCC2)c1=O [Palbociclib] (partner 0.5 µM)
How it was run: as §1

Tivantinib + Dasatinib = compound: O=C1NC(=O)[C@@H](c2cn3c4c(cccc24)CCC3)[C@@H]1c1c[nH]c2ccccc12 [Tivantinib] + Cc1nc(Nc2ncc(C(=O)Nc3c(C)cccc3Cl)s2)cc(N2CCN(CCO)CC2)n1 [Dasatinib] (partner 0.075 µM)
How it was run: as §1

| Cell Line | relative viability (Crenolanib + Linsitinib; first compound 0.01 µM) | relative viability (Crenolanib + Linsitinib; first compound 0.03162 µM) | relative viability (Crenolanib + Linsitinib; first compound 0.1 µM) | relative viability (Crenolanib + Linsitinib; first compound 0.3162 µM) | relative viability (Crenolanib + Linsitinib; first compound 1 µM) | relative viability (Crenolanib + Bortezomib; first compound 0.01 µM) | relative viability (Crenolanib + Bortezomib; first compound 0.03162 µM) | relative viability (Crenolanib + Bortezomib; first compound 0.1 µM) | relative viability (Crenolanib + Bortezomib; first compound 0.3162 µM) | relative viability (Crenolanib + Bortezomib; first compound 1 µM) | relative viability (Tivantinib + Palbociclib; first compound 0.01 µM) | relative viability (Tivantinib + Palbociclib; first compound 0.03162 µM) | relative viability (Tivantinib + Palbociclib; first compound 0.1 µM) | relative viability (Tivantinib + Palbociclib; first compound 0.3162 µM) | relative viability (Tivantinib + Dasatinib; first compound 0.01 µM) | relative viability (Tivantinib + Dasatinib; first compound 0.03162 µM) | relative viability (Tivantinib + Dasatinib; first compound 0.1 µM) | relative viability (Tivantinib + Dasatinib; first compound 0.3162 µM) |
| --- | --- | --- | --- | --- | --- | --- | --- | --- | --- | --- | --- | --- | --- | --- | --- | --- | --- | --- |
| NCI-H1915 | 1.13 | 1.13 | 1.07 | 1.09 | 1.06 | 1 | 0.974 | 0.929 | 1.03 | 0.772 | 0.527 | 0.446 | 0.544 | 0.58 | 0.305 | 0.277 | 0.294 | 0.334 |
| NCI-H1975 | 1.05 | 0.968 | 0.933 | 0.993 | 0.864 | 0.5 | 0.39 | 0.359 | 0.385 | 0.295 | 0.55 | 0.536 | 0.536 | 0.37 | 0.357 | 0.372 | 0.276 | 0.281 |
| NCI-H1993 | 0.771 | 0.757 | 0.724 | 0.649 | 0.705 | 0.82 | 1.11 | 1.04 | 1.06 | 0.994 | 0.701 | 0.621 | 0.583 | 0.567 | 0.649 | 0.7 | 1.35 | 0.583 |
| NCI-H2009 | 1.23 | 1.2 | 1.2 | 1.21 | 1.19 | 1.14 | 1.02 | 1.01 | 0.959 | 0.813 | 0.267 | 0.186 | 0.126 | 0.207 | 0.381 | 0.255 | 0.301 | 0.285 |
| NCI-H2023 | 0.669 | 0.678 | 0.626 | 0.801 | 0.621 | 1.03 | 0.95 | 0.934 | 1.14 | 0.578 | 0.447 | 0.376 | 0.334 | 0.327 | 0.678 | 0.564 | 0.506 | 0.521 |
| NCI-H2085 | 0.998 | 0.896 | 0.913 | 0.932 | 0.873 | 1.05 | 1.1 | 1.07 | 1.11 | 0.968 | 0.472 | 0.483 | 0.463 | 0.468 | 0.331 | 0.244 | 0.239 | 0.209 |
| NCI-H2087 | 1.02 | 1.13 | 0.917 | 1.23 | 1.02 | 0.885 | 0.74 | 0.917 | 0.865 | 0.947 | 0.209 | 0.233 | 0.276 | 0.228 | 0.83 | 0.942 | 0.825 | 0.913 |
| NCI-H2126 | 0.693 | 0.717 | 0.745 | 0.759 | 0.788 | 1.09 | 1.17 | 1.13 | 1.15 | 1.1 | 0.366 | 0.323 | 0.342 | 0.397 | 0.583 | 0.676 | 0.594 | 0.565 |

Reference: the supplement of paper PMC10307832
